Measurements as given in BigSolDB 2.1.

O=C1C=CC(=O)N1c1cc(F)c(Br)c(F)c1
Conditions	solubility (mole fraction)
in THF, 285 K	0.0148
in THF, 288.45 K	0.0162
in THF, 291.55 K	0.0176
in THF, 294.25 K	0.0185
in THF, 297.55 K	0.02
in THF, 302.8 K	0.0228
in THF, 306.65 K	0.0249
in THF, 310.8 K	0.0275
in THF, 315 K	0.0303
in THF, 318.45 K	0.0329
in THF, 321.45 K	0.0355
in THF, 324.65 K	0.0383
in THF, 327.65 K	0.0409
in THF, 330.35 K	0.0437
in THF, 333.65 K	0.047
in THF, 336.25 K	0.0497
in acetone, 287.65 K	0.0071
in acetone, 291.85 K	0.0081
in acetone, 295.55 K	0.0092
in acetone, 298.35 K	0.01
in acetone, 301.25 K	0.0109
in acetone, 304.55 K	0.012
in acetone, 307.6 K	0.0131
in acetone, 309.45 K	0.0139
in acetone, 311.95 K	0.0152
in acetone, 313.95 K	0.0159
in acetone, 316.55 K	0.0174
in acetone, 319.55 K	0.019
in acetone, 321.45 K	0.0202
in acetone, 323.35 K	0.0214
in acetone, 325.15 K	0.0225
in acetonitrile, 291.95 K	0.0028
in acetonitrile, 296.65 K	0.0033
in acetonitrile, 299.25 K	0.0037
in acetonitrile, 302.45 K	0.004
in acetonitrile, 304.85 K	0.0044
in acetonitrile, 307.15 K	0.0049
in acetonitrile, 311.55 K	0.0057
in acetonitrile, 316.95 K	0.007
in acetonitrile, 320.15 K	0.0078
in acetonitrile, 325.45 K	0.0095
in acetonitrile, 328.55 K	0.0107
in acetonitrile, 332.05 K	0.0119
in acetonitrile, 338.65 K	0.0146
in acetonitrile, 341.65 K	0.0165
in acetonitrile, 347.25 K	0.0198
in acetonitrile, 350.15 K	0.0217
in chloroform, 289.25 K	0.0055
in chloroform, 294.85 K	0.0066
in chloroform, 296.65 K	0.0069
in chloroform, 300.85 K	0.0078
in chloroform, 302.75 K	0.0082
in chloroform, 305.65 K	0.0092
in chloroform, 307.45 K	0.0096
in chloroform, 309.55 K	0.0101
in chloroform, 311.65 K	0.0108
in chloroform, 315.35 K	0.012
in chloroform, 318.65 K	0.0132
in chloroform, 322.15 K	0.0146
in chloroform, 324.65 K	0.0157
in chloroform, 326.45 K	0.0166
in chloroform, 328.35 K	0.0176
in chloroform, 330.65 K	0.0188
in ethanol, 288.65 K	0.0003
in ethanol, 293.59 K	0.0003
in ethanol, 299.85 K	0.0004
in ethanol, 305.72 K	0.0006
in ethanol, 311.15 K	0.0008
in ethanol, 318.15 K	0.0011
in ethanol, 324.35 K	0.0014
in ethanol, 327.85 K	0.0016
in ethanol, 332.95 K	0.002
in ethanol, 336.05 K	0.0023
in ethanol, 339.65 K	0.0027
in ethanol, 341.85 K	0.003
in ethanol, 344.15 K	0.0033
in ethanol, 346.15 K	0.0036
in ethanol, 347.75 K	0.0039
in pyridine, 285.55 K	0.0116
in pyridine, 289.66 K	0.0129
in pyridine, 293.95 K	0.0144
in pyridine, 297.15 K	0.0154
in pyridine, 300.85 K	0.0169
in pyridine, 304.65 K	0.0186
in pyridine, 310.05 K	0.0214
in pyridine, 315.65 K	0.0246
in pyridine, 318.65 K	0.0265
in pyridine, 322.55 K	0.0291
in pyridine, 328.45 K	0.0341
in pyridine, 334.15 K	0.0394
in pyridine, 337.95 K	0.0432
in pyridine, 340.65 K	0.0462
in pyridine, 344.85 K	0.0514
in pyridine, 346.35 K	0.0533
